These results are taken from patent publication US20150174144A1, “TETRACYCLINE COMPOUNDS FOR TREATING NEURODEGENERATIVE DISORDERS” (PARATEK PHARMACEUTICALS, INC., priority 2012, published 2015).

Read-outs that look alike come from different tables or passages of the source.

Data set [1] is described as follows: Peroxynitrite-carbonate radical scavenging assay (DHR probe). Here is the method:
Inflammatory conditions are characterized by increasing concentrations of reactive oxygen species. In this study, the ability of Compound 1 to specifically scavenge peroxynitrite-carbonate radicals was determined.
To the first column of a 96-well PCR plate (0.2 mL volume) was added 160 μL of TCWS. One well of the first column would equal one IC50 determination. Typically, test compounds were assayed in duplicate, i.e. two wells of column 1 were filled with each TCWS. To the remaining wells in columns 2-11 was added 80 μL of DWS. Using a multichannel pipettor, column 1 was serially diluted in 2-fold dilutions by removing 80 μL from column 1 and transferring with mixing to column 2. Column 2 was then diluted to column 3 and so on until column 11 where 80 μL of the diluted mixture was removed and discarded. At least 2 wells of row 12 were designated as the 0 test compound control to which 80 μL of DWS was added. One well of row 12 per test compound was designated as the background control to which 80 μL of the TCWS was added.
The plate was covered and incubated for 5 minutes at 37° C. upon which the reaction was initiated by addition of 20 μL of Sin-1 to columns 1-11 using a multichannel pipettor with mixing. The reaction was initiated similarly to the 0 test compound wells of column 12. To the background control wells was added 20 μL of PC buffer. The plate was incubated at 37° C. for 8 minutes (the reaction is linear for 10 minutes) and quenched by addition of 50 μL of AA to all wells with mixing. The plate was placed on ice for 5 minutes. Quenched assay mixtures were stable at room temperature for at least 24 hours.
Each reaction mixture (20 μL) was analyzed for rhodamine 123 product by HPLC using a Phenomenex Luna C18(2) column, 3 um, 4.6×50 mm using an A buffer of water+0.1% TFA and a B buffer of acetonitrile+0.1% TFA and the following gradient method: […]
The absorbance at 280 nm was also recorded to ensure no co-elution of test compound peaks.
Initial examination of the background control samples at the highest test compound concentration were performed to ensure no co-elution of test compound peaks with the product rhodamine 123 at 4 minutes. If co-elution was observed, the compound was not tested until an appropriate HPLC method was developed to separate the product and test compound peaks. The rhodamine 123 AUC was then determined for each test compound concentration and the percent inhibition of rhodamine 123 fluorescence was then determined by the following equation:
% Inhibition=[(AUCo−AUCx)/AUCo]*100
Where AUCo is the AUC of the rhodamine 123 peak at 0 test compound concentration and AUCX is the AUC of the rhodamine 123 peak at each test compound concentration=x.
The standard error of the curve fit for the IC50 was also determined along with the Hill slope. The IC50 determined for uric acid was divided by the IC50 determined for each test compound to generate Uric Acid Equivalents, a measure of the peroxynitrite-carbonate radical scavenging ability relative to uric acid.
Uric Acid Equivalents=[…]

The test system of data set [2] is Fmr1 KO mice and wild-type littermates. Kind of data set: Elevated Plus Maze test, mouse model of Fragile X Syndrome. The data set is classed as in vivo. The settings on record: 10 mg/kg/d i.p. osmotic pump, 1 week. Here is the method: The purpose of this study was to test Compound 1 for treating Fragile X Syndrome. This study utilized Fmr1 KO mice, an animal model of Fragile X Syndrome.
The Fmr1 KO mice (C57BL/6 background) were kindly provided the FRAXA Foundation. Mice were housed in groups of the same genotype in a temperature and humidity controlled room with a 12-h light-dark cycle (lights on 7 am to 7 pm). Testing was conducted during the light phase. Food and water were available ad libitum. Testing was conducted on Fmr1 KO mice and their wild-type littermates. They were housed in commercial plastic cages purchased in the UK. Experiments were conducted in line with the requirements of the UK Animals (Scientific Procedures) Act, 1986.
The dosing protocol used is shown below. Mice were dosed at 6-7 weeks by intraperitoneal (i.p.) infusion by osmotic pump (0.5 μl/hour) for 1 week. The solution of 0.9% saline was used as a vehicle, and 10 mice were dosed per each group.

The next data set deals with MS. The settings on record: MS clinical studies, cited from earlier work.

Broadly, the IC50 is the midpoint of a concentration-inhibition curve. For `CCc1cc(N(C)C)c2c(c1O)C(=O)C1=C(O)[C@]3(O)C(=O)C(C(N)=O)=C(O)[C@@H](N(C)C)[C@@H]3C[C@@H]1C2` [Compound 1], in data set [1] (Sin-1, 37° C., 8 minutes, read-out: IC50, inhibition of oxidation of DHR probe (peroxynitrite-carbonate scavenging)), the IC50 stood at 11 µM. Further, the “Uric Acid Equivalents” value in data set [1] (relative to uric acid) was found to be 1.13. For the same molecule, the “Elevated Plus Maze: time spent in the close arm, Mean time” value came to 259.100 min in data set [2] (Fmr1 KO mice) and 227.800 min in data set [2] (WT mice).

`CN(C)c1ccc(O)c2c1C[C@H]1C[C@H]3[C@H](N(C)C)C(O)=C(C(N)=O)C(=O)[C@@]3(O)C(O)=C1C2=O` [Minocycline, minocycline, reference compound]: the potential side effects entry in the data set on MS is recorded as “Mild Nausea”; in the data set with MS (listed as minocycline) it was “Mild nausea”.
